# Measurements published in ChEMBL document CHEMBL5038625, “Application of the dual-tail approach for the design and synthesis of novel Thiopyrimidine-Benzenesulfonamide hybrids as selective carbonic anhydrase inhibitors” (Eur J Med Chem, 2022).
# Assays:
# [1] = tested on: T47D; assay: Antiproliferative activity against human T47D cells assessed as reduction in cell viability incubated for 24 hrs by sulforhodamine B assay; assay type: functional, cell-based
# [2] = tested on: Hs-578T; assay: Antiproliferative activity against human HS-578T cells assessed as cell growth inhibition at 10 uM incubated for 24 hrs by sulforhodamine B assay; assay type: functional; conditions: read-out: GI
# [3] = tested on: HCT-15; assay: Antiproliferative activity against human HCT-15 cells assessed as cell growth inhibition at 10 uM incubated for 24 hrs by sulforhodamine B assay; assay type: functional; conditions: read-out: GI
# [4] = tested on: UO-31; assay: Antiproliferative activity against human UO-31 cells assessed as cell growth inhibition at 10 uM incubated for 24 hrs by sulforhodamine B assay; assay type: functional; conditions: read-out: GI
# [5] = tested on: NCI-H460; assay: Antiproliferative activity against human NCI-H460 cells assessed as cell growth inhibition at 10 uM incubated for 24 hrs by sulforhodamine B assay; assay type: functional; conditions: read-out: GI
# [6] = tested on: SR; assay: Antiproliferative activity against human SR cells assessed as cell growth inhibition at 10 uM incubated for 24 hrs by sulforhodamine B assay; assay type: functional; conditions: read-out: GI
# [7] = tested on: K562; assay: Antiproliferative activity against human K562 cells assessed as cell growth inhibition at 10 uM incubated for 24 hrs by sulforhodamine B assay; assay type: functional; conditions: read-out: GI
# [8] = tested on: HOP-92; assay: Antiproliferative activity against human HOP-92 cells assessed as cell growth inhibition at 10 uM incubated for 24 hrs by sulforhodamine B assay; assay type: functional; conditions: read-out: GI
# [9] = tested on: MCF7; assay: Antiproliferative activity against human MCF7 cells assessed as cell growth inhibition at 10 uM incubated for 24 hrs by sulforhodamine B assay; assay type: functional; conditions: read-out: GI
# [10] = tested on: MDA-MB-435; assay: Antiproliferative activity against human MDA-MB-435 cells assessed as cell growth inhibition at 10 uM incubated for 24 hrs by sulforhodamine B assay; assay type: functional; conditions: read-out: GI
# [11] = tested on: CAKI-1; assay: Antiproliferative activity against human CAKI-1 cells assessed as cell growth inhibition at 10 uM incubated for 24 hrs by sulforhodamine B assay; assay type: functional; conditions: read-out: GI
# [12] = tested on: SF-295; assay: Antiproliferative activity against human SF-295 cells assessed as cell growth inhibition at 10 uM incubated for 24 hrs by sulforhodamine B assay; assay type: functional; conditions: read-out: GI
# [13] = tested on: PC-3; assay: Antiproliferative activity against human PC-3 cells assessed as cell growth inhibition at 10 uM incubated for 24 hrs by sulforhodamine B assay; assay type: functional; conditions: read-out: GI
# [14] = tested on: T47D; assay: Antiproliferative activity against human T47D cells assessed as cell growth inhibition at 10 uM incubated for 24 hrs by sulforhodamine B assay; assay type: functional; conditions: read-out: GI
# [15] = tested on: MDA-MB-468; assay: Antiproliferative activity against human MDA-MB-468 cells assessed as cell growth inhibition at 10 uM incubated for 24 hrs by sulforhodamine B assay; assay type: functional; conditions: read-out: GI
# [16] = tested on: UACC-62; assay: Antiproliferative activity against human UACC-62 cells assessed as cell growth inhibition at 10 uM incubated for 24 hrs by sulforhodamine B assay; assay type: functional; conditions: read-out: GI
# [17] = tested on: MOLT-4; assay: Antiproliferative activity against human MOLT-4 cells assessed as cell growth inhibition at 10 uM incubated for 24 hrs by sulforhodamine B assay; assay type: functional; conditions: read-out: GI
# [18] = tested on: OVCAR-4; assay: Antiproliferative activity against human OVCAR-4 cells assessed as cell growth inhibition at 10 uM incubated for 24 hrs by sulforhodamine B assay; assay type: functional; conditions: read-out: GI
# [19] = tested on: LOX IMVI; assay: Antiproliferative activity against human LOX IMVI cells assessed as cell growth inhibition at 10 uM incubated for 24 hrs by sulforhodamine B assay; assay type: functional; conditions: read-out: GI
# [20] = tested on: SK-MEL-5; assay: Antiproliferative activity against human SK-MEL-5 cells assessed as cell growth inhibition at 10 uM incubated for 24 hrs by sulforhodamine B assay; assay type: functional; conditions: read-out: GI
# [21] = tested on: EKVX; assay: Antiproliferative activity against human EKVX cells assessed as cell growth inhibition at 10 uM incubated for 24 hrs by sulforhodamine B assay; assay type: functional; conditions: read-out: GI
# [22] = tested on: MDA-MB-231; assay: Antiproliferative activity against human MDA-MB-231 cells assessed as cell growth inhibition at 10 uM incubated for 24 hrs by sulforhodamine B assay; assay type: functional; conditions: read-out: GI
# [23] = tested on: SN12C; assay: Antiproliferative activity against human SN12C cells assessed as cell growth inhibition at 10 uM incubated for 24 hrs by sulforhodamine B assay; assay type: functional; conditions: read-out: GI
# [24] = tested on: NCI-H522; assay: Antiproliferative activity against human NCI-H522 cells assessed as cell growth inhibition at 10 uM incubated for 24 hrs by sulforhodamine B assay; assay type: functional; conditions: read-out: GI
# [25] = tested on: SF-539; assay: Antiproliferative activity against human SF-539 cells assessed as cell growth inhibition at 10 uM incubated for 24 hrs by sulforhodamine B assay; assay type: functional; conditions: read-out: GI
# [26] = tested on: 786-0; assay: Antiproliferative activity against human 786-0 cells assessed as cell growth inhibition at 10 uM incubated for 24 hrs by sulforhodamine B assay; assay type: functional; conditions: read-out: GI
# [27] = tested on: CCRF-CEM; assay: Antiproliferative activity against human CCRF-CEM cells assessed as cell growth inhibition at 10 uM incubated for 24 hrs by sulforhodamine B assay; assay type: functional; conditions: read-out: GI
# [28] = tested on: A498; assay: Antiproliferative activity against human A498 cells assessed as cell growth inhibition at 10 uM incubated for 24 hrs by sulforhodamine B assay; assay type: functional; conditions: read-out: GI
# [29] = tested on: NCI-H226; assay: Antiproliferative activity against human NCI-H226 cells assessed as cell growth inhibition at 10 uM incubated for 24 hrs by sulforhodamine B assay; assay type: functional; conditions: read-out: GI
# [30] = tested on: BT-549; assay: Antiproliferative activity against human BT-549 cells assessed as cell growth inhibition at 10 uM incubated for 24 hrs by sulforhodamine B assay; assay type: functional; conditions: read-out: GI
# [31] = target: Carbonic anhydrase 9 (Homo sapiens, UniProt Q16790); assay: Inhibition of human CA9 preincubated for 15 mins by phenol red dye based stopped flow CO2 hydration assay
# [32] = Antiproliferative activity against human […] cells assessed as cell growth inhibition at 10 uM incubated for 24 hrs by sulforhodamine B assay; assay type: functional; conditions: read-out: GI
# [33] = tested on: DU-145; assay: Antiproliferative activity against human DU-145 cells assessed as cell growth inhibition at 10 uM incubated for 24 hrs by sulforhodamine B assay; assay type: functional; conditions: read-out: GI
# [34] = tested on: MDA-MB-231; assay: Antiproliferative activity against human MDA-MB-231 cells assessed as reduction in cell viability incubated for 24 hrs by sulforhodamine B assay; assay type: functional, cell-based; conditions: MDA-MB-231, 24 h
# [35] = tested on: OVCAR-8; assay: Antiproliferative activity against human OVCAR-8 cells assessed as cell growth inhibition at 10 uM incubated for 24 hrs by sulforhodamine B assay; assay type: functional; conditions: read-out: GI
# [36] = tested on: RXF 393; assay: Antiproliferative activity against human RXF 393 cells assessed as cell growth inhibition at 10 uM incubated for 24 hrs by sulforhodamine B assay; assay type: functional; conditions: read-out: GI
# [37] = tested on: SNB-75; assay: Antiproliferative activity against human SNB-75 cells assessed as cell growth inhibition at 10 uM incubated for 24 hrs by sulforhodamine B assay; assay type: functional; conditions: read-out: GI
# [38] = tested on: A549; assay: Antiproliferative activity against human A549 cells assessed as cell growth inhibition at 10 uM incubated for 24 hrs by sulforhodamine B assay; assay type: functional; conditions: read-out: GI
# [39] = tested on: ACHN; assay: Antiproliferative activity against human ACHN cells assessed as cell growth inhibition at 10 uM incubated for 24 hrs by sulforhodamine B assay; assay type: functional; conditions: read-out: GI
# [40] = tested on: HL-60; assay: Antiproliferative activity against human HL-60 cells assessed as cell growth inhibition at 10 uM incubated for 24 hrs by sulforhodamine B assay; assay type: functional; conditions: read-out: GI
# [41] = tested on: SNB-19; assay: Antiproliferative activity against human SNB-19 cells assessed as cell growth inhibition at 10 uM incubated for 24 hrs by sulforhodamine B assay; assay type: functional; conditions: read-out: GI
# [42] = tested on: MCF7; assay: Antiproliferative activity against human MCF7 cells assessed as reduction in cell viability incubated for 24 hrs by sulforhodamine B assay; assay type: functional, cell-based; conditions: MCF7, 24 h
# [43] = tested on: HCT-116; assay: Antiproliferative activity against human HCT-116 cells assessed as cell growth inhibition at 10 uM incubated for 24 hrs by sulforhodamine B assay; assay type: functional; conditions: read-out: GI
# [44] = tested on: RPMI-8226; assay: Antiproliferative activity against human RPMI-8226 cells assessed as cell growth inhibition at 10 uM incubated for 24 hrs by sulforhodamine B assay; assay type: functional; conditions: read-out: GI
# [45] = tested on: KM12; assay: Antiproliferative activity against human KM12 cells assessed as cell growth inhibition at 10 uM incubated for 24 hrs by sulforhodamine B assay; assay type: functional; conditions: read-out: GI
# [46] = tested on: U-251; assay: Antiproliferative activity against human U-251 cells assessed as cell growth inhibition at 10 uM incubated for 24 hrs by sulforhodamine B assay; assay type: functional; conditions: read-out: GI
# [47] = tested on: Malme-3M; assay: Antiproliferative activity against human Malme-3M cells assessed as cell growth inhibition at 10 uM incubated for 24 hrs by sulforhodamine B assay; assay type: functional; conditions: read-out: GI
smiles,measurement,setting,value
COc1ccc(OC)c(-c2nc(SCC(=O)c3ccccc3)nc(Nc3ccc(S(N)(=O)=O)cc3)c2C#N)c1,IC50,[1],> 100 µM
same,inhibition of growth at 10 µM,[2],6.75%
same,inhibition of growth at 10 µM,[3],26.3%
same,inhibition of growth at 10 µM,[4],29.1%
same,inhibition of growth at 10 µM,[5],10.9%
same,inhibition of growth at 10 µM,[6],22.7%
same,inhibition of growth at 10 µM,[7],14.6%
same,inhibition of growth at 10 µM,[8],52%
same,inhibition of growth at 10 µM,[9],14.7%
same,inhibition of growth at 10 µM,[10],7.57%
same,inhibition of growth at 10 µM,[11],23.3%
same,inhibition of growth at 10 µM,[12],10.3%
same,inhibition of growth at 10 µM,[13],20.6%
same,inhibition of growth at 10 µM,[14],20.4%
same,inhibition of growth at 10 µM,[15],18.3%
same,inhibition of growth at 10 µM,[16],5.35%
same,inhibition of growth at 10 µM,[17],30.1%
same,inhibition of growth at 10 µM,[18],14.9%
same,inhibition of growth at 10 µM,[19],17.7%
same,inhibition of growth at 10 µM,[20],5.91%
same,inhibition of growth at 10 µM,[21],11.3%
same,inhibition of growth at 10 µM,[22],23.6%
same,inhibition of growth at 10 µM,[23],14.1%
same,inhibition of growth at 10 µM,[24],6.74%
same,inhibition of growth at 10 µM,[25],27.1%
same,inhibition of growth at 10 µM,[26],12.6%
same,inhibition of growth at 10 µM,[27],10.7%
same,inhibition of growth at 10 µM,[28],30.7%
same,inhibition of growth at 10 µM,[29],7.28%
same,inhibition of growth at 10 µM,[30],8.03%
same,Ki,[31],0.0877 µM
same,inhibition of growth at 10 µM,[32],10.1%
same,inhibition of growth at 10 µM,[33],8.97%
same,IC50,[34],> 100 µM
same,inhibition of growth at 10 µM,[35],7.32%
same,inhibition of growth at 10 µM,[36],25.6%
same,inhibition of growth at 10 µM,[37],18.4%
same,inhibition of growth at 10 µM,[38],10.8%
same,inhibition of growth at 10 µM,[39],6.95%
same,inhibition of growth at 10 µM,[40],8.52%
same,inhibition of growth at 10 µM,[41],9.28%
same,IC50,[42],> 100 µM
same,inhibition of growth at 10 µM,[43],7.67%
same,inhibition of growth at 10 µM,[44],18.1%
same,inhibition of growth at 10 µM,[45],8.89%
same,inhibition of growth at 10 µM,[46],9.25%
same,inhibition of growth at 10 µM,[47],6.7%
